{"source": "patent US20250346629A1", "about": "“USE OF D-ENANTIOMERIC PEPTIDE LIGANDS OF MONOMERIC ALPHA-SYNUCLEIN FOR THE THERAPY OF VARIOUS SYNUCLEINOPATHIES” (PRIAVOID GMBH, priority 2021, published 2025)", "key": {"WT alpha-synuclein": {"biological_target": "WT alpha-synuclein (Homo sapiens, UniProt P37840)", "test": "Multicycle SPR experiment of WT alpha-synuclein and immobilized SVD-1 (FIG. 3)", "format": "binding", "experimental": "WT α-syn was injected in a concentration range of […] in PBS, PH 7.4. Regeneration: 2 M Gua-HCl and 0.1% SDS."}, "full-length α-syn": {"biological_target": "full-length α-syn (Homo sapiens, UniProt P37840)", "test": "MST measurement of fluorophore-labeled peptides with full-length α-syn (FIG. 10)", "format": "binding", "conditions": "100 nM labeled peptide, PBS pH 7.4, 25° C., individual measurement", "experimental": "The peptides were fluorescence labeled by means of cysteine-maleimide coupling. SVD-1_Cys and SVD 1a_Cys were fluorescence labeled at the C-terminus with a fivefold or tenfold molar excess of TCEP and CF633-PEG2-maleimide (Sigma-Aldrich, USA). The labeling reaction was carried out in 25 mM NaPi, PH 7.0, for 2 h at RT. The labeled peptides were purified at 25° C. using an Agilent 1260 Infinity II System and a C-18 RP-HPLC column (Zorbax 300 SB-C8/SB-C 18, Agilent, USA). The mobile phases consisted of A: water+0.1% TFA, and B: acetonitrile+0.1% TFA. The fluorescence-labeled peptides and proteins were eluted with a gradient of 5-40% (v/v) B in 30 min. The fluorescence-labeled products were fractionated using the absorption wavelength of the fluorophore (CF633: 633 nm) and the pooled samples were subsequently lyophilized and redissolved in the appropriate buffer. The protein concentrations were determined by means of UV-vis and the fluorescence-labeled samples were stored at −20° C.\nThe experiments for microscale thermophoresis (MST) were carried out using a Monolith NT.115 device (NanoTemper Technologies GmbH, GE). Fluorescence-labeled peptides were diluted in PBS, PH 7.4 to a final concentration of 100 nM. […] The data was evaluated with the thermophoresis effect, using the NT analysis software (version 1.5.41) supplied by the manufacturer. […]"}, "[1]": {"test": "Solubility of D-peptides in buffer (UV-vis of supernatant after centrifugation)", "format": "physicochemical", "conditions": "different buffers including PBS, aqueous buffer; different buffer conditions including PBS pH 7.4; 1 h at 37° C., 20 800×g centrifugation; read-out: starting concentration up to which the compound remained completely in the supernatant", "excerpt": "D-enantiomeric peptides with C-terminal amidation were acquired from CASLO (CASLO, DK) as a lyophilized chloride salt powder having a purity of >95%."}, "α-syn [2]": {"biological_target": "α-syn (Homo sapiens, UniProt P37840)", "test": "Gradient centrifugation of α-syn aggregation samples (FIG. 6)", "format": "biochemical", "conditions": "equimolar SVD-1, 9 days, 37° C., no shaking, Iodixanol gradient", "experimental": "No shaking, no glass beads, at 37° C. After 9 days, the triplet samples were combined together and 100 μl was added to an Iodixanol gradient (5-50% (w/v)). 15 fractions, each of 140 μl were analyzed by means of RP-HPLC using a Zorbax 300 SB-C8 column and integrated to α-syn peaks."}, "α-syn [3]": {"biological_target": "α-syn (Homo sapiens, UniProt P37840, A140C)", "test": "MST measurement of SVD-1 and α-syn (FIG. 2, α-syn 140C-C2-Alexa 647)", "format": "binding", "excerpt": "70% LED power; 60% MST power."}, "α-syn oligomers": {"biological_target": "α-syn oligomers (Homo sapiens, UniProt P37840)", "test": "α-syn oligomer elimination, HPLC-SEC of supernatant (FIG. 4)", "format": "biochemical", "conditions": "SVD-1 150 and 250 μM; 5 μM monomer-equivalent oligomers, 3 days, 900 rpm, 37° C.", "excerpt": "The samples were centrifuged at 21 000×g and the supernatant was loaded onto an HPLC-SEC column."}, "PC12 cells": {"tested_on": "PC12 cells", "format": "cell-based", "conditions": "rat, 24 h, 15 μM", "experimental": "PC12 cells (Leibniz-Institut DSMZ, GE) were cultured at 37° C. on a collagen A-coated (Biochrom GmbH, GE) tissue culture flask in RPMI 1640 medium, supplemented with 5% fetal calf serum and 10% horse serum in an atmosphere humidified to 95% with 5% CO2. 10 000 cells per well in a volume of 100 μl were seeded into collagen A-coated 96-well plates (Thermo Fisher Scientific, USA and incubated for 24 hours at 37° C. and 300 rpm in a thermocycler.\nFurthermore, 15 μM of the peptides alone, cell media, buffer without peptide and 0.1% Triton X-100 (cytotoxic compound) were used as controls. After further incubation in a 95% humidified atmosphere with 5% CO2 at 37° C. for 24 hours, the viability of the cells was measured using the Cell Proliferation Kit I (MTT) (Roche Applied Science, CH), following the manufacturer's protocol.\nThe MTT-formazan product was quantified by measuring the absorbance at 570 nm, corrected by subtracting the absorbance at 660 nm, in a FluoroStar Optima plate reader (BMG labtech, GE). All results were normalized to untreated cells grown only in medium. The significance test was carried out by one-way ANOVA with Bonferroni post-hoc analysis (OriginPro 2020, OriginLab, USA; n=4).\nThe significance test was carried out by one-way ANOVA with Bonferroni post-hoc analysis: […], ***p≤0.01. The means are stated±SD (n=4)."}, "WT α-syn": {"biological_target": "WT α-syn (Homo sapiens, UniProt P37840)", "test": "Single cycle SPR experiment of WT α-syn on CM5-immobilized peptides (FIG. 8)", "conditions": "1:1 binding model fit, CM5 chip, PBS pH 7.4, 0.005% Tween-20", "experimental": "Each peptide was immobilized on a CM5 sensor chip surface. WT α-syn was injected in a concentration range of 30-500 nM in PBS, PH 7.4, 0.005% (v/v) Tween-20. Regeneration was carried out after every cycle with 2 M Gua-HCl for 2×30 sec. The KDs were determined with a 1:1 binding model fit, as follows: SVD-1a: 15.7 nM; SVD-6a: 14.0 nM; SVD-10a: 12.3 nM."}, "[4]": {"tested_on": "αSynA53T-YFP cells (HEK293T)", "test": "Cell assay for seeded α-synuclein aggregation (FIG. 19)", "format": "cell-based, human", "experimental": "A construct encoding full-length A53T-mutated human α-syn and fused with YFP at the C-terminus was synthesized and introduced into the pMK-RQ expression vector (GeneArt; Thermo Fisher Scientific, USA). The α-synA53T-YFP construct was sub-cloned using the restriction sites NheI (5′) and NotI (3′) in the vector pIRESpuro3 (Clontech; Takara Bio, JPN). HEK293T cells (American Type Culture Collection) were cultured in high-glucose Dulbecco's Modified Eagle's Medium (DMEM; Sigma-Aldrich, USA) which had 10% fetal calf serum (Sigma-Aldrich, USA), 50 units/ml penicillin, and also 50 μg/ml streptomycin (Sigma-Aldrich, USA) added thereto. The cells were cultured at 37° C. in a humidified atmosphere with 5% CO2.\nThe cells plated in DMEM were transfected with Lipofectamine 2000 (Invitrogen; Thermo Fisher Scientific, USA). Stable cells were selected in DMEM with 1 μg/ml puromycin (EMD Millipore, USA). Monoclonal cell lines were produced by means of fluorescence-activated cell sorting of a polyclonal cell population in 96-well plates using a MoFlo XDP cell sorter (Beckman Coulter, USA). […]\nThe plates were then incubated at 37° C. in a humidified atmosphere with 5% CO2. On the third day, the cells were imaged in an IN Cell Analyzer 6500HS system (Cytiva, USA) using the blue and green fluorescence channels, and analyzed by the IN Carta Image Analysis software (Cytiva, USA) which had been used to establish an algorithm for identifying intracellular aggregates in living cells. Four wells were used for each condition and 16 images were recorded per well and analyzed by a fully-automated algorithm in order to prevent distortions. […]\nIn order to validate the inhibitory effect of SVD-1a in cells, use was made of the α-synA53T-YFP cell system which stably expresses human α-syn with the familial A53T mutation, fused with YFP, in HEK293T cells, and the fluorescence-based detection of aggregates makes it possible to clearly show the strongly fluorescent spots within the cells against the background, intracellularly after seeding with PFF oligomers. […] Panels C, F and I show αSynA53T-YFP fluorescence. […]"}}, "note": "Like-named read-outs stand apart in the source and are kept apart here. Square brackets hold non-standard residues; d marks the D form. Peptide text beside a SMILES is read from it.", "data": [{"compound": "CC[C@@H](C)[C@@H](NC(=O)[C@@H](Cc1c[nH]cn1)NC(=O)[C@@H](CCC(=O)O)NC(=O)[C@@H](CCC(N)=O)NC(=O)[C@@H](Cc1c[nH]c2ccccc12)NC(=O)[C@@H](Cc1ccc(O)cc1)NC(=O)[C@H](NC(=O)[C@@H](CCC(=O)O)NC(=O)[C@@H](Cc1c[nH]cn1)NC(=O)[C@H](NC(=O)[C@H]1CCCN1C(=O)[C@@H](CCSC)NC(=O)[C@H](N)CCCCN)[C@H](C)O)[C@H](C)O)C(=O)N[C@H](Cc1c[nH]c2ccccc12)C(=O)N[C@H](Cc1c[nH]cn1)C(=O)N[C@H](C)C(N)=O", "note": "[SVD-1, kmpthetywqehiwha] (H-[dK][dM][dP][dT][dH][dE][dT][dY][dW][dQ][dE][dH][dI][dW][dH][dA]-NH2)", "values": [{"measurement": "Kd", "setting": "WT alpha-synuclein; heterogeneous ligand adjustment, PBS pH 7.4, read-out: KD1", "result": 12.5, "unit": "nM"}, {"measurement": "Kd", "setting": "WT alpha-synuclein; read-out: KD2, heterogeneous ligand adjustment, PBS pH 7.4", "result": 2000, "unit": "nM"}, {"measurement": "Kd", "setting": "full-length α-syn", "result": 170, "unit": "nM"}, {"measurement": "solubility at 1 h", "setting": "[1]", "result": "≥ 1000", "unit": "µM"}, {"measurement": "fibril formation (fractions F6-F12)", "setting": "α-syn [2]", "result": "No fibril formation (F6-F12) was observed"}, {"measurement": "Kd", "setting": "α-syn [3]", "result": 55, "unit": "nM"}, {"measurement": "α-syn oligomer in the supernatant", "setting": "α-syn oligomers", "result": "not possible to detect any α-syn oligomer in the supernatant"}, {"measurement": "cells saved (cell viability)", "setting": "PC12 cells", "result": 89, "unit": "%"}]}, {"compound": "CC(C)C[C@@H](NC(=O)[C@H]1CCCN1C(=O)[C@@H](CCC(N)=O)NC(=O)[C@@H](CCCNC(=N)N)NC(=O)[C@@H](Cc1c[nH]c2ccccc12)NC(=O)[C@@H](CC(=O)O)NC(=O)[C@H](N)Cc1ccc(O)cc1)C(=O)N[C@H](CO)C(=O)N[C@H](C)C(=O)N[C@H](CO)C(=O)N[C@H](CCCNC(=N)N)C(=O)N[C@H](Cc1ccccc1)C(=O)N[C@H](CC(C)C)C(=O)N[C@H](C)C(=O)N1CCC[C@@H]1C(=O)N[C@H](Cc1c[nH]c2ccccc12)C(=O)N[C@H](CCCNC(=N)N)C(=O)N[C@H](CCCNC(=N)N)C(=O)N[C@H](CCCNC(=N)N)C(=O)N[C@H](CCCNC(=N)N)C(=O)N[C@H](CCCNC(=N)N)C(N)=O", "note": "[SVD-6a, ydwrqplsasrflapwrrrrr] (H-[dY][dD][dW][dR][dQ][dP][dL][dS][dA][dS][dR][dF][dL][dA][dP][dW][dR][dR][dR][dR][dR]-NH2)", "values": [{"measurement": "Kd", "setting": "WT α-syn", "result": 14, "unit": "nM"}]}, {"compound": "C[C@H](O)[C@@H](NC(=O)[C@@H](CC(N)=O)NC(=O)[C@@H](Cc1c[nH]c2ccccc12)NC(=O)[C@@H](Cc1ccc(O)cc1)NC(=O)[C@H]1CCCN1C(=O)[C@H]1CCCN1C(=O)[C@@H](CC(N)=O)NC(=O)[C@@H](Cc1c[nH]c2ccccc12)NC(=O)[C@@H](CCC(N)=O)NC(=O)[C@@H](CCC(N)=O)NC(=O)[C@@H](Cc1c[nH]c2ccccc12)NC(=O)[C@@H](Cc1c[nH]cn1)NC(=O)[C@@H](CO)NC(=O)[C@H](N)CO)C(=O)N[C@H](CC(=O)O)C(=O)N[C@H](CO)C(=O)N[C@H](CCCNC(=N)N)C(=O)N[C@H](CCCNC(=N)N)C(=O)N[C@H](CCCNC(=N)N)C(=O)N[C@H](CCCNC(=N)N)C(=O)N[C@H](CCCNC(=N)N)C(N)=O", "note": "[SVD-10a, sshwqqwnppywntdsrrrrr] (H-[dS][dS][dH][dW][dQ][dQ][dW][dN][dP][dP][dY][dW][dN][dT][dD][dS][dR][dR][dR][dR][dR]-NH2)", "values": [{"measurement": "Kd", "setting": "WT α-syn", "result": 12.3, "unit": "nM"}]}, {"compound": "kgvgnleyqlwalegk-NH2", "values": [{"measurement": "cells with aggregation", "setting": "[4]; 25 μM peptide, seeded with soluble α-syn-PFF oligomers, third day", "result": 85, "unit": "%"}, {"measurement": "inhibition of α-syn aggregation in cells", "setting": "[4]; seeded with 30 nM PFF oligomers, day 3, two-stage transfection", "result": "not"}]}]}
